Patent US20160304552A1, “MODIFIED NUCLEIC ACID MOLECULES AND USES THEREOF” (MODERNA THERAPEUTICS, INC., priority 2013, published 2016)

Columns and labels:
[1] = molecular target: T7 RNA polymerase (Escherichia phage T7, UniProt P00573); assay: In vitro transcription yields of modified mRNA; format: biochemical; conditions: for EPO In Vitro Transcription yield: EPO mRNA made with the modified NTP(s); for GCSF In Vitro Transcription yield: GCSF mRNA made with the modified NTP(s); for Luc In Vitro Transcription yield: Luciferase mRNA made with the modified NTP(s)
Procedure: The in vitro transcription reaction generates mRNA containing modified nucleotides or modified RNA. The input nucleotide triphosphate (NTP) mix is made in-house using natural and unnatural NTPs.
A typical in vitro transcription reaction includes the following:
Incubation at 37° C. for 3 hr-5 hrs.
The crude IVT mix may be stored at 4° C. overnight for cleanup the next day. 1 U of RNase-free DNase is then used to digest the original template. After 15 minutes of incubation at 37° C., the mRNA is purified using Ambion's […]™ Kit (Austin, Tex.) following the manufacturer's instructions. This kit can purify up to 500 μg of RNA. Following the cleanup, the RNA is quantified using the NanoDrop and analyzed by agarose gel electrophoresis to confirm the RNA is the proper size and that no degradation of the RNA has occurred.
Modified mRNAs in TE buffer (1 μl) are used for Nanodrop UV absorbance readings to quantitate the yield of each modified mRNA from an in vitro transcription reaction (UV absorbance traces are not shown).

[2] = system: Rabbit Reticulocyte Lysate; assay: In vitro translation screen, firefly Luciferase modRNA (luciferase assay, relative light units); format: biochemical; conditions: Table 20; 250 ng modRNA, 45 min, 30° C.
Procedure: (§1) The in vitro translation assay was done with the Rabbit Reticulocyte Lysate (nuclease-treated) kit (Promega, Madison, Wis.; Cat. #L4960) according to the manufacturer's instructions. The reaction buffer was a mixture of equal amounts of the amino acid stock solutions devoid of Leucine or Methionine provided in the kit.
(§2) The modRNAs of firefly Luciferase, human GCSF and human EPO, harboring chemical modifications on either the bases or the ribose units, were diluted in sterile nuclease-free water to a final concentration of 250 ng in 2.5 ul (Stock 100 ng/μl). The modRNA (250 ng) was added to the mixture of freshly prepared Rabbit Reticulocyte Lysate and reaction buffer.
After 45 min incubation, the reaction was stopped by placing the plate on ice. Aliquots of the in vitro translation reaction containing luciferase modRNA were transferred to white opaque polystyrene 96-well plates (Corning, Manassas, Va.; Cat. # CLS3912) and combined with 100 ul complete luciferase assay solution (Promega, Madison, Wis.). The volumes of the in vitro translation reactions were adjusted or diluted until no more than 2 million relative light units per well were detected for the strongest signal producing samples. […] The plate reader was a BioTek Synergy H1 (BioTek, Winooski, Vt.).

[3] = system: Rabbit Reticulocyte Lysate; assay: In vitro translation screen, human GCSF modRNA (GCSF ELISA); format: biochemical; conditions: Table 20; 250 ng modRNA, 45 min, 30° C.
Procedure: as §1, §2
(§3) Aliquots of the in vitro translation reaction containing human GCSF modRNA or human EPO mRNA were transferred and analyzed with a human GCSF-specific or EPO ELISA kit (both from R&D Systems, Minneapolis, Minn.; Cat. #s SCS50, DEP00 respectively) according to the manufacturer instructions. All samples were diluted until the determined values were within the linear range of the human GCSF or EPO ELISA standard curve.

[4] = system: Rabbit Reticulocyte Lysate; assay: In vitro translation screen, human EPO modRNA (EPO ELISA); format: biochemical; conditions: Table 20; 250 ng modRNA, 45 min, 30° C.
Procedure: as §1, §2, §3

[5] = system: HeLa cells; assay: Transfection in HeLa cells, Luciferase modRNA (luciferase assay, relative light units); format: cell-based, human; conditions: Table 22, 83 ng modRNA, Lipofectamine 2000, 18 h to 22 h
Procedure: (§4) The day before transfection, 20.000 HeLa cells (ATCC no. CCL-2; Manassas, Va.) were harvested by treatment with Trypsin-EDTA solution (LifeTechnologies, Grand Island, N.Y.) and seeded in a total volume of 100 ul EMEM medium (supplemented with 10% FCS and 1× Glutamax) per well in a 96-well cell culture plate (Corning, Manassas, Va.). The cells were grown at 37° C. in 5% CO2 atmosphere overnight. Next day, 83 ng of Luciferase modRNA or 250 ng of human GCSF modRNA, harboring chemical modifications on the bases or the ribose units, were diluted in 10 ul final volume of OPTI-MEM (LifeTechnologies, Grand Island, N.Y.). Lipofectamine 2000 (LifeTechnologies, Grand Island, N.Y.) was used as transfection reagent and 0.2 μl were diluted in 10 ul final volume of OPTI-MEM. After 5 min incubation at room temperature, both solutions were combined and incubated additional 15 min at room temperature. Then the 20 μl were added to the 100 ul cell culture medium containing the HeLa cells. The plates were then incubated as described before.
After 18 h to 22 h incubation, cells expressing luciferase were lysed with 100 μl Passive Lysis Buffer (Promega, Madison, Wis.) according to manufacturer instructions. Aliquots of the lysates were transferred to white opaque polystyrene 96-well plates (Corning, Manassas, Va.) and combined with 100 ul complete luciferase assay solution (Promega, Madison, Wis.). The lysate volumes were adjusted or diluted until no more than 2 mio relative light units per well were detected for the strongest signal producing samples. […] The plate reader was a BioTek Synergy H1 (BioTek, Winooski, Vt.).

[6] = system: HeLa cells; assay: Transfection in HeLa cells, human GCSF modRNA (GCSF ELISA of supernatant); format: cell-based; conditions: Table 22, 250 ng modRNA, 18 h to 22 h
Procedure: as §4
(§5) After 18 h to 22 h incubation, cell culture supernatants of cells expressing human GCSF or human EPO were collected and centrifuged at 10.000 rcf for 2 min. The cleared supernatants were transferred and analyzed with a human GCSF-specific or EPO ELISA kit (both from R&D Systems, Minneapolis, Minn.; Cat. #s SCS50, DEP00, respectively) according to the manufacturer instructions. All samples were diluted until the determined values were within the linear range of the human GCSF or EPO ELISA standard curve.

[7] = system: HeLa cells; assay: Transfection in HeLa cells, human EPO modRNA (EPO ELISA of supernatant); format: cell-based; conditions: Table 22, 18 h to 22 h
Procedure: as §4, §5

[8] = system: human PBMC; assay: PBMC cytokine assay, interferon-alpha production (IFN-alpha multi-subtype ELISA); format: cell-based
Procedure: 50 mL of human blood from three donors was received from Research Blood Components (Brighton, Mass.) in sodium heparin tubes. […] The tubes were centrifuged at 2000 rpm for 30 minutes with low acceleration and braking (Thermo, Waltham, Mass., 75004506). The tubes were removed and the buffy coat PBMC layers were gently transferred to a fresh 50 mL conical and washed with DPBS. The tubes were centrifuged at 1450 rpm for 10 minutes. The supernatant was aspirated and the PBMC pellets were resuspended and washed in 50 mL of DPBS. The tubes were centrifuged at 1450 rpm for 10 minutes. […] The cell suspensions were adjusted to a concentration of 3.0×10^6 cells/mL live cells. […] Within 30 minutes, transfection mixtures were added to each well at a volume of 50 μL per well. […] The transfection mixtures were then transferred to each of the human PBMC plates at 50 μL per well (6 wells per mRNA sample). The plates were then incubated at 37° C. […] In order to harvest the supernatant, plates were centrifuged at 1450 rpm for 5 min in a swinging plate rotor. The supernatant of 6 wells transfected with the same mRNA was carefully harvested and pooled in a single well of a fresh 96-well plate. Supernatants were either frozen or used fresh until ELISA analysis was done. The ability of unmodified and modified mRNA to trigger innate immune recognition as measured by interferon-alpha production.

Chain of T7 RNA polymerase (P00573 whole entry): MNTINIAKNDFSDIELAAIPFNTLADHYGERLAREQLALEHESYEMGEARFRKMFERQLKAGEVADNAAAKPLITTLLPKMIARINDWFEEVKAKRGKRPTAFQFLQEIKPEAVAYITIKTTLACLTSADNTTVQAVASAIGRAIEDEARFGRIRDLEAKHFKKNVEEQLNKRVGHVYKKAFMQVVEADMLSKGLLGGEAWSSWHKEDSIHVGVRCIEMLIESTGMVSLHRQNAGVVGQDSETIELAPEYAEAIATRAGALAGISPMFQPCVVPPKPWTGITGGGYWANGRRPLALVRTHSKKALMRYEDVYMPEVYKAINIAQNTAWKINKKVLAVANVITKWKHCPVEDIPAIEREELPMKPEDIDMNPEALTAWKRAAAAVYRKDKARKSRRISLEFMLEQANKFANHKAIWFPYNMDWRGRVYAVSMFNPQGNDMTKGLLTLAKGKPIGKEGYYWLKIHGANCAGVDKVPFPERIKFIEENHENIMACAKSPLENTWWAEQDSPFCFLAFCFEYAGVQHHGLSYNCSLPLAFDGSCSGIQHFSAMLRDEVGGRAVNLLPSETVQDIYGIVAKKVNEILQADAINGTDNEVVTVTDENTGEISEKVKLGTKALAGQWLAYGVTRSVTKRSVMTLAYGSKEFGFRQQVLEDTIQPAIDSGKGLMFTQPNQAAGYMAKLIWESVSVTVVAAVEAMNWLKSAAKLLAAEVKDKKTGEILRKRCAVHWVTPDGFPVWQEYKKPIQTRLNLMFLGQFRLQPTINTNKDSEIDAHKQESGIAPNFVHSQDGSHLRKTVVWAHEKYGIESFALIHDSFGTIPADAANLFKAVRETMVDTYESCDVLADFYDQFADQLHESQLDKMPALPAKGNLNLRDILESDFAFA

| SMILES | EPO In Vitro Transcription yield [1] | GCSF In Vitro Transcription yield [1] | Luc In Vitro Transcription yield [1] | Luc Expression (RLUs) [2] | GCSF Expression [3] | Epo Expression [4] | Luc Expression (RLUs) [5] | GCSF Expression [6] | Epo Expression [7] | Luc (3 Donor samples) ([8]; Luc mRNA, 1st value in cell) | Luc (3 Donor samples) ([8]; Luc mRNA, 2nd value in cell) | Luc (3 Donor samples) ([8]; Luc mRNA, 3rd value in cell) | hEPO (3 Donor samples) ([8]; hEPO mRNA, 1st value in cell) | hEPO (3 Donor samples) ([8]; hEPO mRNA, 2nd value in cell) | hEPO (3 Donor samples) ([8]; hEPO mRNA, 3rd value in cell) | hGCSF (3 Donor samples) ([8]; hGCSF mRNA, 1st value in cell) | hGCSF (3 Donor samples) ([8]; hGCSF mRNA, 2nd value in cell) | hGCSF (3 Donor samples) ([8]; hGCSF mRNA, 3rd value in cell) | interferon-alpha concentration in PBMC supernatant ([8]; Luc mRNA, 1st value in cell) | interferon-alpha concentration in PBMC supernatant ([8]; Luc mRNA, 2nd value in cell) | other results |
| --- | --- | --- | --- | --- | --- | --- | --- | --- | --- | --- | --- | --- | --- | --- | --- | --- | --- | --- | --- | --- | --- |
| O=c1[nH]cc([C@@H]2O[C@H](COP(O)(=S)OP(=O)(O)OP(=O)(O)O)C(O)C2O)c(=O)[nH]1 (stereo in doubt) [00902015001 (194), PseudoU-alpha-thio-TP] | 0.8632 mg | 0.5522 mg | 0.6479 mg | 5221 RLUs | 7763 pg/mL | 2669 pg/mL | 2015 RLUs | 320000 pg/mL | 302800 pg/mL | 20 pg/mL | 170 pg/mL | -90 pg/mL | -190 pg/mL | 75 pg/mL | 400 pg/mL | 50 pg/mL | 508.33 pg/mL | 640 pg/mL |  |  |  |
| COc1cn([C@@H]2O[C@H](COP(=O)(O)OP(=O)(O)OP(=O)(O)O)C(O)C2O)c(=O)[nH]c1=O (stereo in doubt) [Compound 00901013007, 5-methoxy-UTP] | 0.1727 mg | 0.1546 mg | 0.3817 mg | 306600 RLUs | 26440 pg/mL | 17530 pg/mL | 31580 RLUs | 1399000 pg/mL | 1116000 pg/mL |  |  |  |  |  |  |  |  |  | 390 pg/mL | -70 pg/mL | interferon-alpha concentration in PBMC supernatant ([8]; Luc mRNA, 3rd value in cell): -170 pg/mL; interferon-alpha concentration in PBMC supernatant ([8]; hEPO mRNA, 1st value in cell): -210 pg/mL; interferon-alpha concentration in PBMC supernatant ([8]; hEPO mRNA, 2nd value in cell): 162.5 pg/mL; interferon-alpha concentration in PBMC supernatant ([8]; hEPO mRNA, 3rd value in cell): 150 pg/mL; interferon-alpha concentration in PBMC supernatant ([8]; hGCSF mRNA, 1st value in cell): 350 pg/mL; interferon-alpha concentration in PBMC supernatant ([8]; hGCSF mRNA, 2nd value in cell): -41.66 pg/mL; interferon-alpha concentration in PBMC supernatant ([8]; hGCSF mRNA, 3rd value in cell): 40 pg/mL |
| O=c1[nH]c(=S)[nH]cc1[C@@H]1O[C@H](COP(=O)(O)OP(=O)(O)OP(=O)(O)O)C(O)C1O (stereo in doubt) [00901015006 (193), 2-Thio-pseudo-UTP] | 1.081 mg | 0.5207 mg | 0.6123 mg | 2198 RLUs | 5988 pg/mL | 12310 pg/mL | 1999 RLUs | 239300 pg/mL | 380600 pg/mL |  |  |  |  |  |  |  |  |  | 530 pg/mL | 1180 pg/mL | interferon-alpha concentration in PBMC supernatant ([8]; Luc mRNA, 3rd value in cell): 1400 pg/mL; interferon-alpha concentration in PBMC supernatant ([8]; hEPO mRNA, 1st value in cell): -210 pg/mL; interferon-alpha concentration in PBMC supernatant ([8]; hEPO mRNA, 2nd value in cell): 675 pg/mL; interferon-alpha concentration in PBMC supernatant ([8]; hEPO mRNA, 3rd value in cell): 362.5 pg/mL; interferon-alpha concentration in PBMC supernatant ([8]; hGCSF mRNA, 1st value in cell): 358.33 pg/mL; interferon-alpha concentration in PBMC supernatant ([8]; hGCSF mRNA, 2nd value in cell): 166.66 pg/mL; interferon-alpha concentration in PBMC supernatant ([8]; hGCSF mRNA, 3rd value in cell): 490 pg/mL |
| Cn1cc([C@@H]2O[C@H](COP(O)(=S)OP(=O)(O)OP(=O)(O)O)C(O)C2O)c(=O)[nH]c1=O (stereo in doubt) [00902015002 (195), 1-Methyl-pseudo-U-alpha-thio-TP] | 0.7679 mg | 0.6582 mg | 0.6011 mg | 1201 RLUs | 4244 pg/mL | 1694 pg/mL | 4900 RLUs | 372100 pg/mL | 348600 pg/mL | 180 pg/mL | 500 pg/mL | 180 pg/mL | -290 pg/mL | 512.5 pg/mL | 475 pg/mL | 425 pg/mL | 916.66 pg/mL | 1250 pg/mL |  |  |  |
| O=c1[nH]c(=O)n([C@@H]2O[C@H](COP(=O)(O)OP(=O)(O)OP(=O)(O)O)C(O)C2O)cc1Br (stereo in doubt) [Compound 00901013009, 5-Bromo-UTP] | 0.2617 mg | 0.3566 mg | 0.3352 mg | 218500 RLUs | 21530 pg/mL | 18220 pg/mL | 2731 RLUs | 118600 pg/mL | 210500 pg/mL |  |  |  |  |  |  |  |  |  |  |  |  |
